Measurements: ChEMBL document CHEMBL1125551, “Conformationally restricted analogues of disoxaril: a comparison of the activity against human rhinovirus types 14 and 1A” (1992)
Values after ≈ are worked out from the molar mass of the structure shown.

How the values were obtained:
[1] = tested on: Human rhinovirus 1A; assay: In vitro determined against HRV-1A in a plaque reduction assay; assay type: functional
[2] = tested on: rhinovirus B14; assay: In vitro determined against HRV-14 in a plaque reduction assay; assay type: functional, human rhinovirus type 14; conditions: Rhinovirus B

| MIC [1] | MIC [2] | SMILES |
| --- | --- | --- |
| 2.25 µM (≈ 0.858 µg/mL) | 0.44 µM (≈ 0.168 µg/mL) | Cc1cc(CC/C=C/COc2c(Cl)cc(C3=NCCO3)cc2Cl)on1 |
| 2.5 µM (≈ 0.958 µg/mL) | 1.2 µM (≈ 0.46 µg/mL) | Cc1cc(CCCCCOc2c(Cl)cc(C3=NCCO3)cc2Cl)on1 [WIN-54954] |
| 4.72 µM (≈ 1.8 µg/mL) | 3.9 µM (≈ 1.49 µg/mL) | Cc1cc(CC/C=C\COc2c(Cl)cc(C3=NCCO3)cc2Cl)on1 |
| > 8.2 µM | 0.26 µM (≈ 0.0986 µg/mL) | Cc1cc(CCC#CCOc2c(Cl)cc(C3=NCCO3)cc2Cl)on1 |
| 0.46 µM (≈ 0.163 µg/mL) | 8.14 µM (≈ 2.89 µg/mL) | Cc1cc(CCCOc2c(Cl)cc(C3=NCCO3)cc2Cl)on1 |
